This is an account of results in patent publication US8455469B2, “Use of norgestimate as a selective inhibitor of TRPC3, TRPC6 and TRPC7 ion channels” (Sanofi, priority 2007, dated 2013).

Common to all, as to assay type: cell-based
Test [1] deals with T1, TRPC6 (Homo sapiens, UniProt Q9Y210).
T1 construct: expressed in transfected cells; host or cells: HEK293 (inducible expression)
T1 sequence (Q9Y210 1-931): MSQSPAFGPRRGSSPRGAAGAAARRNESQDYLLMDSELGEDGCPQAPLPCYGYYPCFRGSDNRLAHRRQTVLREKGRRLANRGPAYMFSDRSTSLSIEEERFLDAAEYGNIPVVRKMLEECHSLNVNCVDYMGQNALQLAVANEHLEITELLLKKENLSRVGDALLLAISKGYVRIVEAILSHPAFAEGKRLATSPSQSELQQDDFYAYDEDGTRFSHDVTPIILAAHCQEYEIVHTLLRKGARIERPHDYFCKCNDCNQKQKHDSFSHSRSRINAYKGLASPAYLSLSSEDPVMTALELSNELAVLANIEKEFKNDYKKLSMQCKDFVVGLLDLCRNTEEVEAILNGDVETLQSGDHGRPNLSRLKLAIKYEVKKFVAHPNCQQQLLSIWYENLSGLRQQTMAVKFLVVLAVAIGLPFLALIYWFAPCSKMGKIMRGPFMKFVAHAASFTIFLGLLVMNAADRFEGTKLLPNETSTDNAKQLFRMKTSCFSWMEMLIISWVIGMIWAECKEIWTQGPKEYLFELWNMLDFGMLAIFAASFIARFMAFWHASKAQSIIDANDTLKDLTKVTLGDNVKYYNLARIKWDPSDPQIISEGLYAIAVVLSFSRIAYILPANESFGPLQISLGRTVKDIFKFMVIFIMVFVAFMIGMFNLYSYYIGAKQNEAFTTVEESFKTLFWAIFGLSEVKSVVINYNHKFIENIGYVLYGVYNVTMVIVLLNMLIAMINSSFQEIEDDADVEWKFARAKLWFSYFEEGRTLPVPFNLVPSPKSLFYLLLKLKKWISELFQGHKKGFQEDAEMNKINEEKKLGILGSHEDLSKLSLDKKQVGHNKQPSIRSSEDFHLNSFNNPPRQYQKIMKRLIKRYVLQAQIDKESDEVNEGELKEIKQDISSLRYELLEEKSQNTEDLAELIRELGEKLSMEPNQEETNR
Put plainly: Whole-cell patch clamp, AlF4- activated TRPC6 HEK293 cells. Particulars: 10 μM. The text has this:
Inhibition of TRPC6- and TRPC5-mediated Ca^2+ -influx by norgestimate monitored in fluorometric experiments with cell populations was validated and compared with whole-cell patch clamp recordings of single cells. Channels were indirectly excited with the same stimulus for better comparability of the norgestimate effect. Aluminium tetrafluoride (AIF^4−) applied intracellularly via the patch pipette activates G-proteins by mimicking GTP (Sternweis & Gilman, 1982; Bigay et al., 1987). Subsequently TRPC channels are stimulated and mediate non-specific cationic currents (FIG. 3 A, B) When 10 μM norgestimate were applied to activated TRPC6 channels, 89.9 ±3.1% (n=15) of the current measured at resting membrane potential was blocked. This inhibition was reversible as current amplitude increased after norgestimate wash out (FIG. 3 A).
Effect of 10 μM norgestimate (NG) on whole-cell currents evoked by AlF4^− infusion into induced TRPC6— (A) and TRPC5 HEK 293 (B) cells. Whole cell currents recorded at −70 mV (left panels) and the corresponding current-voltage (I-V) relationships are shown (right panels). […] The curves were obtained during voltage ramps from −100 to +80 mV. (C) Statistical analysis of the norgestimate effect on TRPC5— and TRPC6-mediated currents. 10 μM norgestimate inhibit 25.9±5.7% (n=20) of TRPC5-mediated currents and 89.9±3.1% (n=15) of TRPC6-mediated currents (P<0.001, Wilcoxon test, two-sided).
On the technique in general: The patch-clamp technique gives a direct electrical read-out from membranes.

For test [2], the target named is T1, TRPC6. Description: FLIPR Ca2+ influx measurement, OAG-activated TRPC6 HEK293 cells. Particulars: 30 μM OAG. The text has this:
In general, cells are provided which express a TRPC channel. Such cells can be produced using genetic methods known to a person skilled in the art. After having induced the expression of the TRPC channel, cells are usually plated into e.g. microtiter plates and grown. Usually the cells grow at the bottom of multiwell plates and are fixed. Thereafter, the cells are generally washed and loaded with a dye in a suitable loading buffer, preferably with a fluorescent dye such as fluo4am. After having removed the loading buffer, the cells are incubated with the test compound or modulator, in particular with a biochemical or chemical test compound as described above, e.g. in the form of a chemical compound library. Ca^2+ measurements can be carried out using e.g. a Fluorescence Imaging Plate Reader (FLIPR). To stimulate Ca^2+ influx through the TRPC channel a channel activator such as OAG should generally be applied.
TRPC3 and TRPC6 were directly activated by application of oleoyl-2-acetyl-sn-glycerol (OAG), a membrane permeable diacylglycerol analogue.
(A, C) Time-dependent changes of intracellular Ca^2+ concentration ([Ca^2+]i) of fluo-4-loaded induced TRPC3 HEK293 cells (A) and TRPC6 HEK293 cells (C). […] Measurements were performed in 96er well plates using FLIPR (Molecular Devices, Sunnyvale, Calif., USA) (B, D) Determination of norgestimates IC50 value on TRPC3 (B) and TRPC6 (D). […]

Test [3] has as its target T2, V1 receptor (Rattus norvegicus, UniProt P30560).
T2 construct: endogenous in cells; host or cells: A7r5 (rat aortic smooth muscle)
Put plainly: Calcium imaging of fura-2-loaded A7r5 cells stimulated with AVP. Particulars: 10 μM, 5 min preincubation, calcium-free solution, 100 nM AVP. Here is the method: The A7r5 cell line (derived from rat thoracic aorta smooth muscle cells) is a model system to investigate endogenous TRPC channels (Jung et al., 2002; Soboloff et al., 2005). The channels were indirectly stimulated by Arg^8-vasopressin (AVP), a vasoconstricting peptide that activates the endogenous vasopressin V1A receptor in these cells (Thibonnier et al., 1991).
Time-dependent changes of [Ca^2+]i; of fura-2-loaded A7r5 cells. Cells were preincubated with or without (control) 10 μM norgestimate (NG) in calcium-free standard extracellular solution (1 mM EGTA) for 5 min before stimulating the V1 receptor by application of 100 nM AVP. Data are represented as means of 33 cells (control) and 36 cells (10 μM norgestimate). Measurements were performed using a standard imaging setup (TILL Photonics, Gräfelfing, Germany).

In test [4] the test system is TRPC3/6/7 subfamily members versus TRPC4/5 subfamily members. Description: Fluorometric measurements, potency compared between TRPC subfamilies. Particulars: based on calculated inhibition by 10 μM norgestimate. Here is the method:
The 4-fold more potency of norgestimate on TRPC3/6/7 subfamily members than on TRPC4/5 subfamily members was evaluated with fluorometric measurements and based on the calculated inhibition by 10 μM norgestimate.

T2 sequence (P30560 whole entry): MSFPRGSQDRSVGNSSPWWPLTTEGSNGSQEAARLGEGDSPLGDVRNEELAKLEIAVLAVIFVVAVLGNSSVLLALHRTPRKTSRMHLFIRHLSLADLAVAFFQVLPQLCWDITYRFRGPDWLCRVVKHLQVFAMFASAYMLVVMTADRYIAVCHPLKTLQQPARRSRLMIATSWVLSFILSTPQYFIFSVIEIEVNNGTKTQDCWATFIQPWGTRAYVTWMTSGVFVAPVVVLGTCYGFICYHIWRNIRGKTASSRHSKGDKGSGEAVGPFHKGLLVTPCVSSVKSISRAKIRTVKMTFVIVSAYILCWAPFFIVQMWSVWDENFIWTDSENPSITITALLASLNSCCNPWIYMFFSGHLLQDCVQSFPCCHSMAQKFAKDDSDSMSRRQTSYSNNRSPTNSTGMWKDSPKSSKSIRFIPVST

What is called IC50 is the midpoint of a concentration-inhibition curve. As to `C#C[C@]1(OC(C)=O)CC[C@H]2[C@@H]3CCC4=C/C(=N/O)CC[C@@H]4[C@H]3CC[C@@]21CC` [norgestimate, D-17β-acetoxy-B-ethyl-17α ethinyl-gon-4-en-3-one oxime], in test [1], the “reversibility of TRPC6 current inhibition after wash out” value was “reversible”. In test [1] (current at resting membrane potential (-70 mV), n=15), this compound gave a TRPC6 current blocked of 89.9 ±3.1%. The compound also registered a 50% inhibitory concentration (IC50) in test [2] (FLIPR, n=4) of 5.2 ± 0.4 µM. The “TRPC6-mediated Ca2+ influx following application of OAG” value in test [2] (cells preincubated with 30 μM norgestimate) is reported as “strongly reduced”. The “effect on V1 receptors (AVP-evoked [Ca2+]i)” value in test [3] is reported as “does not generally suppress”. The “fold more potent on TRPC3/6/7 subfamily members than on TRPC4/5 subfamily members” value in test [4] was “at least 4 fold”.
